In ChEMBL document CHEMBL1145297, “Synthesis, aerobic cytotoxicity, and radiosensitizing activity of novel 2,4-dinitrophenylamine tethered 5-fluorouracil and hydroxyurea” (Bioorg Med Chem Lett, 2006):
The source made the active and inactive calls. No cut-off for these calls is given here.

Tests used:
HT-29 [1] = assay: Cytotoxicity against HT29 cell line without 4 Gy [60Co]-induced irradiation by MTT assay relative to control; format: cell-based; conditions: human
HT-29 [2] = assay: Cytotoxicity against 4 Gy [60Co] irradiated HT29 cell line by MTT assay relative to control; format: cell-based; conditions: human
HT-29 [3] = assay: Inhibition of viability in 4 Gy [60Co] irradiated HT29 cells at 10 uM relative to control; format: functional, Homo sapiens
HT-29 [4] = assay: Radiosensitizing activity in 4 Gy [60Co] irradiated HT29 cells at 2.5 uM; format: functional, cell-based; conditions: Homo sapiens
SP2 = assay: Radiosensitizing activity in SP2 cell line; format: functional, cell-based; conditions: Mus musculus
HT-29 [5] = assay: Radiosensitizing activity in 4 Gy [60Co] irradiated HT29 cells; format: functional, cell-based; conditions: Homo sapiens
HT-29 [6] = assay: Cytotoxicity against HT29 cell line below 2.5 uM; format: cell-based; conditions: human

Compound | Activity (HT-29 [1]) | Activity (HT-29 [2]) | Activity (HT-29 [3]) | Activity (HT-29 [4]) | Activity (SP2) | Activity (HT-29 [5]) | Activity (HT-29 [6])
O=c1[nH]cc(F)c(=O)n1CCCNc1ccc([N+](=O)[O-])cc1[N+](=O)[O-] | Not Active | Not Active | 60% | Active | Active | – | –
O=c1[nH]cc(F)c(=O)[nH]1 [FLUOROURACIL] | 65% | 65% | – | – | – | inactive | Not Active
NC(=O)NO [HYDROXYUREA] | 25% | 25% | – | – | – | – | –
CCCNc1ccc([N+](=O)[O-])cc1[N+](=O)[O-] | 20% | 20% | – | – | – | inactive | –
NC(=O)NOCCCNc1ccc([N+](=O)[O-])cc1[N+](=O)[O-] | Not Active | Not Active | 60% | Active | Active | – | –
